PMC12142043, “Cell-based high-content approach for SARS-CoV-2 neutralization identifies unique monoclonal antibodies and PI3K pathway inhibitors” (Frontiers in Cell and Developmental Biology, 2025)

Test system: SARS-CoV-2 (USA-WA1/2020) in Calu-3 cells
Type: cell-based
Details: Calu-3, 48 h; for dsRNA signal, AU High: high dose (10 µM); for dsRNA signal, AU Low: low dose (100 nM)

CCCCCCCCCCCCCC(=O)O[C@@H]1[C@@H](C)[C@@]2(O)[C@@H](C=C(CO)C[C@]3(O)C(=O)C(C)=C[C@@H]23)[C@@H]2C(C)(C)[C@]12OC(C)=O
dsRNA signal, AU High: 6922.4 AU | dsRNA signal, AU Low: 0.0 AU

2-D08
dsRNA signal, AU High: 21678.5 AU | dsRNA signal, AU Low: 7689.9 AU

6H05
dsRNA signal, AU High: 9210.5 AU | dsRNA signal, AU Low: 25435.6 AU

10058-F4
dsRNA signal, AU High: 21785.0 AU | dsRNA signal, AU Low: 24031.2 AU

O=C(O)C(Cc1ccccc1[N+](=O)[O-])=NNc1nc(-c2ccc(Cl)c(Cl)c2)cs1 (mixture of isomers) [4EGI-1]
dsRNA signal, AU High: 27081.3 AU | dsRNA signal, AU Low: 17726.3 AU

COC(=O)C1=C(C)NC(C)=C(C(=O)O[C@@H]2CCCN(Cc3ccccc3)C2)[C@@H]1c1cccc([N+](=O)[O-])c1.Cl (racemic) [Benidipine HCl]
dsRNA signal, AU High: 130.4 AU | dsRNA signal, AU Low: 31078.1 AU

O=C(COc1ccc(Cl)cc1)NC1CCC(NC(=O)COc2ccc(Cl)cc2)CC1 (single isomer, unassigned) [ISRIB (trans-isomer)]
dsRNA signal, AU High: 6980.3 AU | dsRNA signal, AU Low: 60689.2 AU

CC(=O)c1c(O)c(C)c(O)c2c1OC1=CC(=O)C(C(C)=O)C(=O)C12C (single isomer, unassigned; (+)) [(+)-Usniacin]
dsRNA signal, AU High: 3049.6 AU | dsRNA signal, AU Low: 59009.6 AU

O=C1NC(=O)C(=Cc2ccc(-c3ccc(F)cc3)o2)S1 (stereo in doubt) [CAY10505]
dsRNA signal, AU High: 15375.8 AU | dsRNA signal, AU Low: 16784.8 AU

BrC1C(Br)C(Br)C(Br)C(Br)C1Br (centres unmarked) [1,2,3,4,5,6-Hexabromocyclohexane]
dsRNA signal, AU High: 58.9 AU | dsRNA signal, AU Low: 23091.7 AU

CCCCCCCCCCCC(=O)OC[C@H](CO)OC(=O)CCCCCCCCCCC [1,2-Dilauroyl-sn-glycerol]
dsRNA signal, AU High: 32229.3 AU | dsRNA signal, AU Low: 52450.9 AU

OCC1OC(O)CC(O)C1O [2-Deoxy-D-glucose]
dsRNA signal, AU High: 5572.7 AU | dsRNA signal, AU Low: 62378.7 AU

Cn1cnc(N)c2ncnc1-2 [3-Methyladenine]
dsRNA signal, AU High: 32357.3 AU | dsRNA signal, AU Low: 26977.2 AU

Cc1c[nH]c2ccccc12 [3-Methylindole]
dsRNA signal, AU High: 0.0 AU | dsRNA signal, AU Low: 1602.7 AU

O=C(CCl)c1c[nH]c2ccccc12 [3CAI]
dsRNA signal, AU High: 6736.4 AU | dsRNA signal, AU Low: 43810.0 AU

O=C(O)c1ccc(N2C(=O)/C(=C\c3ccc(-c4ccc([N+](=O)[O-])cc4)o3)C=C2c2ccccc2)cc1 [4E1RCat]
dsRNA signal, AU High: 11534.6 AU | dsRNA signal, AU Low: 17206.1 AU

Nc1ncnc2c1c(I)cn2[C@@H]1O[C@H](CO)[C@@H](O)[C@H]1O [5-Iodotubercidin]
dsRNA signal, AU High: 2639.0 AU | dsRNA signal, AU Low: 20167.4 AU

O=c1cc(-c2ccccc2)oc2c(O)c(O)ccc12 [7,8-Dihydroxyflavone]
dsRNA signal, AU High: 9230.6 AU | dsRNA signal, AU Low: 39399.4 AU

CCCCCCCC/C=C\CCCCCCCCCCCC(=O)O [13(Z)-Docosenoic Acid]
dsRNA signal, AU High: 4336.2 AU | dsRNA signal, AU Low: 49926.0 AU

Cc1[nH]nc2ccc(-c3cncc(OC[C@@H](N)Cc4ccccc4)c3)cc12 [A-674563]
dsRNA signal, AU High: 0.0 AU | dsRNA signal, AU Low: 6156.4 AU

Cc1c(NC(=O)OC[C@@H]2COCCN2)cn2ncnc(Nc3ccc4c(cnn4Cc4cccc(F)c4)c3)c12 [AC480 (BMS-599626)]
dsRNA signal, AU High: 468.1 AU | dsRNA signal, AU Low: 62401.2 AU

COCc1c(-c2ccc(NC(=O)Nc3cc(C(F)(F)F)ccc3F)c(F)c2)c2c(N)ncnn2c1CN1CCOCC1 [ACTB-1003]
dsRNA signal, AU High: 28009.9 AU | dsRNA signal, AU Low: 9584.0 AU

N#C/C(=C/c1ccc(O)c(O)c1)C(=O)NCc1ccccc1 [AG-490]
dsRNA signal, AU High: 8748.3 AU | dsRNA signal, AU Low: 4415.8 AU

CC(C)(C)c1cc(C=C(C#N)C#N)cc(Br)c1O [AG-1024]
dsRNA signal, AU High: 1211.9 AU | dsRNA signal, AU Low: 44737.5 AU

COc1cc2ncnc(Nc3cccc(Cl)c3)c2cc1OC [AG-1478]
dsRNA signal, AU High: 1676.2 AU | dsRNA signal, AU Low: 67129.9 AU

NC(=O)c1ncn([C@@H]2O[C@H](CO)[C@@H](O)[C@H]2O)c1N [AICAR]
dsRNA signal, AU High: 10649.1 AU | dsRNA signal, AU Low: 34470.9 AU

c1ccc(-c2oc3ncnc(NC[C@@H]4CCCO4)c3c2-c2ccccc2)cc1 [AIM-100]
dsRNA signal, AU High: 17272.0 AU | dsRNA signal, AU Low: 4414.3 AU

O=c1[nH]c2ccccc2n1C1CCN(Cc2ccc(-c3nc4cc5[nH]cnc5cc4nc3-c3ccccc3)cc2)CC1 [AKT inhibitor VIII]
dsRNA signal, AU High: 14379.0 AU | dsRNA signal, AU Low: 47838.1 AU

O=C(Nc1ccccc1C(=O)NC1CCCCNC1=O)c1cc2ccccc2s1 (centres unmarked) [ANA 12]
dsRNA signal, AU High: 5083.5 AU | dsRNA signal, AU Low: 20498.0 AU

c1cc(Nc2cc(C3CC3)[nH]n2)nc(Nc2ccc3nc[nH]c3c2)n1 [APY29]
dsRNA signal, AU High: 1195.6 AU | dsRNA signal, AU Low: 15781.0 AU

COc1ccc(CNC(=O)Nc2ncc([N+](=O)[O-])s2)cc1 [AR-A014418]
dsRNA signal, AU High: 79.4 AU | dsRNA signal, AU Low: 22152.5 AU

N#CC(c1ccnc(NCCc2cccnc2)n1)c1nc2ccccc2s1 (centres unmarked) [AS601245]
dsRNA signal, AU High: 18398.2 AU | dsRNA signal, AU Low: 6237.2 AU

O=C1NC(=O)/C(=C\c2ccc3nccnc3c2)S1 [AS-605240]
dsRNA signal, AU High: 11785.5 AU | dsRNA signal, AU Low: 49405.3 AU

COc1cc(N2CCC(N3CCN(C)CC3)CC2)ccc1Nc1ncnc(Nc2ccccc2S(=O)(=O)C(C)C)n1 [ASP3026]
dsRNA signal, AU High: 11916.3 AU | dsRNA signal, AU Low: 27995.4 AU

CCN1CCN(Cc2ccc(NC(=O)Nc3ccc(Oc4cc(NC)ncn4)cc3)cc2C(F)(F)F)CC1 [AST 487]
dsRNA signal, AU High: 7505.2 AU | dsRNA signal, AU Low: 5709.8 AU

Cl.O=C(NC1CCNCC1)c1[nH]ncc1NC(=O)c1c(Cl)cccc1Cl [AT7519 Hydrochloride]
dsRNA signal, AU High: 0.0 AU | dsRNA signal, AU Low: 18031.2 AU

Clc1ccc(C2(c3ccc(-c4cn[nH]c4)cc3)CCNCC2)cc1 [AT7867]
dsRNA signal, AU High: 150.0 AU | dsRNA signal, AU Low: 6554.9 AU

C=CC(=O)Nc1cccc(Nc2nc(Nc3ccc(OCCOC)cc3)ncc2F)c1 [AVL-292]
dsRNA signal, AU High: 20034.7 AU | dsRNA signal, AU Low: 9433.9 AU

N#Cc1ccc2[nH]c(O)c(-c3ccc(CN4CCOCC4)cn3)c2c1 [AZD1080]
dsRNA signal, AU High: 30210.5 AU | dsRNA signal, AU Low: 12322.5 AU

CC(C)n1c(=O)n(C)c2cnc3cc(F)c(-c4ccc(OCCCN5CCCCC5)nc4)cc3c21 [AZD1390]
dsRNA signal, AU High: 7959.8 AU | dsRNA signal, AU Low: 37767.2 AU

CNC(=O)c1cccc(-c2ccc3c(N4CCOC[C@@H]4C)nc(N4CCOC[C@@H]4C)nc3n2)c1 [AZD2014]
dsRNA signal, AU High: 4130.5 AU | dsRNA signal, AU Low: 12584.4 AU

CN1CCN(S(=O)(=O)c2ccc(-c3cnc(N)c(C(=O)Nc4cccnc4)n3)cc2)CC1 [AZD2858]
dsRNA signal, AU High: 10014.5 AU | dsRNA signal, AU Low: 6684.6 AU

Cc1noc(C)c1-c1ccc(-c2cc(C(N)=O)c(NC(N)=O)s2)c(O[C@H]2CCNC2)c1 [AZD3264]
dsRNA signal, AU High: 223.2 AU | dsRNA signal, AU Low: 47155.4 AU
